Assay [1] concerns the target T1, Shaker R362S with alpha pore open (R1S) (Drosophila melanogaster, UniProt P08510, DUP563-563/L584V/Q583H/R362S).
T1 construct: expressed in transfected cells; host or cells: Xenopus oocytes injected with cRNA (vector pBSTA)
As to the kind of experiment: Omega currents (Iω) of Shaker R1S in Xenopus oocytes, two electrode voltage-clamp. In kind it is cell-based. Particulars: 30, 100 and 300 μM La3+; test pulses +60 mV to -300 mV, holding -50 mV. An excerpt: (§1) The coding cDNAs of Shaker “wild-type” (hereinafter WT) base construct (Shaker H4, with intact inactivation), Shaker R362S with alpha pore open (hereinafter R1S) and Shaker with the alpha pore closed by mutation W434F (herein after R1S/W434F) were cloned into a high expression vector pBSTA. The C-terminus of all constructs was tagged with eGFP. Transcripted cRNA was produced using the mMessage mMachine kit (Ambion Inc.).
(§2) Two to four days past injection of cRNA into stage V-VI Xenopus oocytes (NASCO), omega currents (Iω) and currents through the alpha pore (Iα) were recorded with the two electrode voltage-clamp technique making use of a TURBO TEC-05× amplifier (npi electronic GmbH). Currents were filtered at 10 kHz and sampled at 20 kHz. The bath solution contained (in mM): NaCl 96, KCl 2, CaCl2 1, MgCl2 1 and HEPES 5 (pH 7.5). Voltage-recording and current-injecting microelectrodes were filled with 3 M KCl and pulled to have resistances between 0.2 and 1 MΩ (see Stork et al., 2007). The pClamp software package v.10.1 (Molecular Devices, Inc.) was used for data acquisition and analysis.
(§3) Pulses (20 ms) from +60 to ˜300 mV were applied in 20 mV steps at 1 Hz from a holding potential of either −80 mV (WT, R1S/W434F) or ˜50 mV (R1S) (see FIG. 34B) to measure omega currents (Iω) without leak subtraction. […]
On the technique in general: In two-electrode clamp one electrode senses voltage and the other passes current.

Assay [2] concerns the target T2, Shaker R1S/W434F (alpha pore closed) (Drosophila melanogaster, UniProt P08510, DUP563-563/L584V/Q583H/R362S/W434F).
T2 construct: expressed in transfected cells; host or cells: Xenopus oocytes injected with cRNA (vector pBSTA)
Put plainly: Omega currents (Iω) of Shaker R1S/W434F in Xenopus oocytes, two electrode voltage-clamp. In kind it is cell-based. To be noted: 100 μM La3+, steps from -80 mV to -200 mV, 20 ms pulses at 1 Hz.
Excerpt: as §1, §2, §3

Assay [3] deals with Kv2.1 R293S/R294S/R300S (R-1S/R0S/R2S). As to the kind of experiment: Omega currents (Iω) of Kv2.1 R-1S/R0S/R2S in Xenopus oocytes, two electrode voltage-clamp. In kind it is cell-based, human.
Excerpt: The coding cDNAs of KV2.1 “wild-type” (hereinafter WT) base construct (hKv2.1-m7-c3 is human Kv2.1, residues 1-858, mutated to confer AgTx2 sensitivity and to remove extracellular cysteine residues) was synthesized (Entelchon GmbH) and cloned into the high expression vector pBSTA.
Mutations Kv2.1 R294N (hereinafter R0N), Kv2.1 R300S (hereinafter R2S), Kv2.1 R294C/R300S (hereinafter R0C/R2S), Kv2.1 R293S/R294S (hereinafter R-1S/R0S), Kv2.1 R293S/R294C (hereinafter R-1S/R0C), Kv2.1 R293S/R294S/R300S (hereinafter R-1S/R0S/R2S), Kv2.1 R293S/R294C/R300S (hereinafter R-1S/R0C/R2S) were introduced using the QuikChange® Lightning Site-Directed Mutagenesis Kit (Stratagene) with mutagenic primers according to the manufacturer's instructions. All constructs were checked by restriction site mapping and sequencing.
as §2, with “Transcripted cRNA was produced using the mMessage mMachine kit (Ambion Inc.). Two” for “Two”, “(NASCO) potassium” for “(NASCO), omega currents (Iω) and”
Recording of alpha currents (Iα): Pulses of 100 ms were applied from ˜60 to +60 mV in 10 mV steps at 1 Hz from a holding potential of ˜80 mV to the Kv2.1 channel constructs to measure alpha currents (Iα). Passive leak currents were subtracted online using a P/4 procedure: pClamp software generates a series of scaled-down replica sweeps of the main stimulus waveform. […] The cell's response to the subsweeps is used to calculate the degree of passive cellular current leak. This is then subtracted from acquired data on the associated input signal. Recording of omega currents (Iω): Pulses of 10 ms were applied from a holding potential of ˜80 to ˜300 mV in 20 mV steps at 0.3 Hz to the Kv2.1 channel constructs. Iω were recorded without leak subtraction.
AgTx2 (Sigma Aldrich) was reconstituted according to manufacturer's instructions with 10 mM Tris, pH 7.5, containing 100 mM sodium chloride, 0.1% bovine serum albumin, and 1 mM EDTA. LaCl3 was from Sigma Aldrich; MTSEA, MTSES and MTSET were from Biotium.
La^3+, AgTx2, MTSEA, MTSES and MTSET and were applied to Xenopus oocytes by means of a fast perfusion technique (ScreeningTool as described by Baburin et al., 2006). Origin software v.7.0 (OriginLab Corp.) was employed for data analysis. Inhibition of inward currents was defined as 1−Iω,drug/Iω,control, where Iω,drug is the current response in the presence of a given concentration of lanthanum (La^3+) and Iω, control is the control current through the omega pore. The concentration-inhibition curve was fitted using the Hill equation: Iω,drug/Iω,control=A+[…] where IC50 is the concentration at which Iω inhibition is half-maximal, C is the applied La^3+ concentration, A is the fraction of Iω current that blocked and nH is the Hill coefficient. Data are given as mean±SE (n=number of experiments).

Another assay addresses Kv1.2 (Homo sapiens, UniProt P16389). To be noted: cited from earlier work.
Another assay addresses Kv1.5 (Homo sapiens, UniProt P22460). To be noted: Table 4; cited from earlier work.
Another assay has as its target Kv1.1 (Homo sapiens, UniProt Q09470). To be noted: cited from earlier work.
The next assay has as its target Kv1.6 (Homo sapiens, UniProt P17658). To be noted: Table 4; read-out: IC50 Others: Kv1.6; cited from earlier work.
Another assay deals with KCa3.1 (Homo sapiens, UniProt O15554). To be noted: Table 4; cited from earlier work.
KCa3.1, sequence (O15554 whole entry): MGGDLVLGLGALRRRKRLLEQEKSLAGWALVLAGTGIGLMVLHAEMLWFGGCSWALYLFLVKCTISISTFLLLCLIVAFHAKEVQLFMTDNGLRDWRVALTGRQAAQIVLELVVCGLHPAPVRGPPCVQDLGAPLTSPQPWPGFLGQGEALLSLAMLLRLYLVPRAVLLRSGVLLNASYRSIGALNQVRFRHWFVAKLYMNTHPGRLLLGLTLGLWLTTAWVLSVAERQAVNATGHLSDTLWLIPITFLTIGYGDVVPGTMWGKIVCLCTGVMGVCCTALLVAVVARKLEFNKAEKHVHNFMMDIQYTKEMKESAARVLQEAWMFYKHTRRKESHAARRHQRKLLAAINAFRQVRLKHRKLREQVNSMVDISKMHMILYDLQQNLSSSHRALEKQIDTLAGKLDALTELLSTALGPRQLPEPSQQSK
The target of another assay is Kv1.4 (Homo sapiens, UniProt P22459). To be noted: Table 4; read-out: IC50 Others: Kv1.4; cited from earlier work.
Kv1.4, sequence (P22459 whole entry): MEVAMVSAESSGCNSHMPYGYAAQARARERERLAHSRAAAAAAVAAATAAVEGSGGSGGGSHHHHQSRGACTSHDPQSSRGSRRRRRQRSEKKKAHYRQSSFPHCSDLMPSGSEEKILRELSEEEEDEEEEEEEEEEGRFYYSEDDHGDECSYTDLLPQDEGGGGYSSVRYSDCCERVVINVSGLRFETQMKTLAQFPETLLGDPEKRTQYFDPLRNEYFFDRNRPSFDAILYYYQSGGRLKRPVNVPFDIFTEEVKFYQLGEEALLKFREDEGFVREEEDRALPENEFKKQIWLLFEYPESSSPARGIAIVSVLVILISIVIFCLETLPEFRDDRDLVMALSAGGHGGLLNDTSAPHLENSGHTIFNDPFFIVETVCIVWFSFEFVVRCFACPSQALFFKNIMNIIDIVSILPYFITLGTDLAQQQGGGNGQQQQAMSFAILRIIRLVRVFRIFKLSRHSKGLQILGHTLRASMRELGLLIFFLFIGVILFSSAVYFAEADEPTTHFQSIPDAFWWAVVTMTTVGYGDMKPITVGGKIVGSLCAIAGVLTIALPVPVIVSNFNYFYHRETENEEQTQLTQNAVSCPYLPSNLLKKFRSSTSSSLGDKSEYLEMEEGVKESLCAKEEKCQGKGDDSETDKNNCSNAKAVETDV
For the next assay, the target named is Kv1.3 (Homo sapiens, UniProt P22001). To be noted: cited from earlier work.
Kv1.3, sequence (P22001 whole entry): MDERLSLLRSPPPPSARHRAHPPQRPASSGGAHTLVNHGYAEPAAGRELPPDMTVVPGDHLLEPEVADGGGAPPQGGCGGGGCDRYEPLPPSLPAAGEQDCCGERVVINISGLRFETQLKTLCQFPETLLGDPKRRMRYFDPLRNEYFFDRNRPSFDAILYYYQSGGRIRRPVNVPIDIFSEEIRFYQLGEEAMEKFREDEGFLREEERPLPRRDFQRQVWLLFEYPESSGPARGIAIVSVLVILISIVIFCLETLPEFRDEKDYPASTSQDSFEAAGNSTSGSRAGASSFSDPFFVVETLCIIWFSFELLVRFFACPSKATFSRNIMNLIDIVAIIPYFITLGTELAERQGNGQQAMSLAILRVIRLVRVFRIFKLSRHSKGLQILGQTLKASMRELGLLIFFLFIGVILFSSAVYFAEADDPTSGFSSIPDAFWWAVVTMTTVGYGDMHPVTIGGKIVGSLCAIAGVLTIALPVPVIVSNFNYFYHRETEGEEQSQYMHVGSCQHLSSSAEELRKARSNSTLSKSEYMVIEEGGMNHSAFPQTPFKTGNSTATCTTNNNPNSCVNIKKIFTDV
For the next assay, the target named is Shaker (Drosophila melanogaster, UniProt P08510, DUP563-563/L584V/Q583H). Particulars: Table 5, cited from earlier work.
Shaker, sequence (P08510 with tags, fused parts or gaps DUP563-563/Q583H/L584V): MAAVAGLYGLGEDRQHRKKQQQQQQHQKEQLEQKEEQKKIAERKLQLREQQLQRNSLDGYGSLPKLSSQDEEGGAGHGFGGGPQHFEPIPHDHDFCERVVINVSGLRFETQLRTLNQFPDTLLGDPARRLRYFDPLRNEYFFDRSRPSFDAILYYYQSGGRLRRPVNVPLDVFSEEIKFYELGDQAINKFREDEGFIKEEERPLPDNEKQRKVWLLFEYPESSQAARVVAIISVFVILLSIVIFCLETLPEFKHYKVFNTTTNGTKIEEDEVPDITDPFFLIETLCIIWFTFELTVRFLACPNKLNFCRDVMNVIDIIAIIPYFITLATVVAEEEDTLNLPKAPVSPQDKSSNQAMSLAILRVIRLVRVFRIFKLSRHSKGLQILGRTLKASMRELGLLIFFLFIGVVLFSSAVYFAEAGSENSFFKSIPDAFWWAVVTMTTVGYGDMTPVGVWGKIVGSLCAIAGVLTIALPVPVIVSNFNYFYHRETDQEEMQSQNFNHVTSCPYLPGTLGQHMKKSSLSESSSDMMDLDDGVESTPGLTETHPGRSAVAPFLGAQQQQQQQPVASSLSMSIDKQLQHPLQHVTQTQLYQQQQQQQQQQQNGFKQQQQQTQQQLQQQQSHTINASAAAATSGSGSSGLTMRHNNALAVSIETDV
In the next assay the target is T3, Kv2.1 (Homo sapiens, UniProt Q14721).
T3 sequence (Q14721 1-858): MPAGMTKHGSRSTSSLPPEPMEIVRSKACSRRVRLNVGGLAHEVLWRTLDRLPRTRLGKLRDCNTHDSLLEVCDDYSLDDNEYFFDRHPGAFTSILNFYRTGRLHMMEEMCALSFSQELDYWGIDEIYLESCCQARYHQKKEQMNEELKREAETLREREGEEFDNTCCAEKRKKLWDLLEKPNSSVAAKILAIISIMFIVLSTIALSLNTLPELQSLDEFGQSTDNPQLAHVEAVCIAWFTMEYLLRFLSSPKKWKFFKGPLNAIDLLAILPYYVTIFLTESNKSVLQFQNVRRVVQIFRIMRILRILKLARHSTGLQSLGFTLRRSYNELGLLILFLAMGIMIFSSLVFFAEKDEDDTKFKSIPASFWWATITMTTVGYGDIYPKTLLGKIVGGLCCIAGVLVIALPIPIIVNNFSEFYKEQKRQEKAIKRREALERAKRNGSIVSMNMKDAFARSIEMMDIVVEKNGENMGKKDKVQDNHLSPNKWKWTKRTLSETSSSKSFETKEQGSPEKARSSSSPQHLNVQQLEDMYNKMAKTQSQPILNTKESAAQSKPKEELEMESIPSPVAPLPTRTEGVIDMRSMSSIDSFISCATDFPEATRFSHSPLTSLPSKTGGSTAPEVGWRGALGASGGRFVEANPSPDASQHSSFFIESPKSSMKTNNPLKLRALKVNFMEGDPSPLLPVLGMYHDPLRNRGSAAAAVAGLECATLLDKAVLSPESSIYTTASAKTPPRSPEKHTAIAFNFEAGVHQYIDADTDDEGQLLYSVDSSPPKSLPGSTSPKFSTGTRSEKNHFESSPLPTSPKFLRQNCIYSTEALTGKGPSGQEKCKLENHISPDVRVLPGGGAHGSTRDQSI
To be noted: Table 5; read-out: IC50, channel Kv2.1; cited from earlier work.

Assay [4] addresses T4, Kv2.1 T359S K360G A366D S367A I383M Y384T K386V (Homo sapiens, UniProt Q14721, A366D/I383M/K360G/K386V/S367A/T359S/Y384T).
T4 sequence (Q14721 1-858 T359S/K360G/A366D/S367A/I383M/Y384T/K386V): T3 sequence (Q14721 1-858) with T359S, K360G, A366D, S367A, I383M, Y384T, K386V
To be noted: Table 5; read-out: IC50, channel Kv2.1 T359S K360G A366D S367A I383M Y384T K386V; cited from earlier work.

Setting [5] is: Table 5, read-out: IC50, channel Kv1.2.
Where [6] appears, read: Table 5, read-out: IC50, channel Kv1.3.
Where [7] appears, read: Table 5, read-out: IC50, channel Kv1.1.

Residue numbers refer to the chain shown, from its start. pIC50: −log10 of the molar value. Like-named read-outs stand apart in the source and are kept apart here.

Kv1.1, sequence (Q09470 whole entry): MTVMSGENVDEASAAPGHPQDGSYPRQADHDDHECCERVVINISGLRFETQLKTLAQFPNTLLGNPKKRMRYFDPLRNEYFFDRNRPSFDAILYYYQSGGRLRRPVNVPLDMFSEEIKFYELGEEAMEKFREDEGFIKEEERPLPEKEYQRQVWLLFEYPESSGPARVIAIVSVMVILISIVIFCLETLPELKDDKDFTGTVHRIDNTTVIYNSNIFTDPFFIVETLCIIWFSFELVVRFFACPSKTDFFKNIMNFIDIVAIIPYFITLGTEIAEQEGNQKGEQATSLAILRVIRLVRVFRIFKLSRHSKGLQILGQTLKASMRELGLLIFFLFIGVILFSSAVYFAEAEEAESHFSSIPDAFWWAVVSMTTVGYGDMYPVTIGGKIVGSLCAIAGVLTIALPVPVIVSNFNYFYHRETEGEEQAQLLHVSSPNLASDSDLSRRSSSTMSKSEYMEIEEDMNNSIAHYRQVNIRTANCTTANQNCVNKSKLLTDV
Kv1.2, sequence (P16389 whole entry): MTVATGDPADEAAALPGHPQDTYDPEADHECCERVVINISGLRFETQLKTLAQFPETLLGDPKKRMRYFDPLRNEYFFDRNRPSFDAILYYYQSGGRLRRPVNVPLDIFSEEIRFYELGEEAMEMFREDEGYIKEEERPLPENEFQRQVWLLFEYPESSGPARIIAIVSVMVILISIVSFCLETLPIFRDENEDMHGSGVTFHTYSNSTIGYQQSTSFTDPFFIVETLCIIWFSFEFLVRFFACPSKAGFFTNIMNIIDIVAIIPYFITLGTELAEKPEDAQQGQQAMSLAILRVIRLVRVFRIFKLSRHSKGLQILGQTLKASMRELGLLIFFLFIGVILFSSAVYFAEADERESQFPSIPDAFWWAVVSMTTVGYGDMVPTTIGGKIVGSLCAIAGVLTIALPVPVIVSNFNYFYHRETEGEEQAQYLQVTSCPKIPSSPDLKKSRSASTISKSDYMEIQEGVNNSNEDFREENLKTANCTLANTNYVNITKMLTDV
T1 sequence (P08510 with tags, fused parts or gaps R362S/DUP563-563/Q583H/L584V): as the sequence (P08510 with tags, fused parts or gaps DUP563-563/Q583H/L584V) above, with R362S counted along it
Kv1.6, sequence (P17658 whole entry): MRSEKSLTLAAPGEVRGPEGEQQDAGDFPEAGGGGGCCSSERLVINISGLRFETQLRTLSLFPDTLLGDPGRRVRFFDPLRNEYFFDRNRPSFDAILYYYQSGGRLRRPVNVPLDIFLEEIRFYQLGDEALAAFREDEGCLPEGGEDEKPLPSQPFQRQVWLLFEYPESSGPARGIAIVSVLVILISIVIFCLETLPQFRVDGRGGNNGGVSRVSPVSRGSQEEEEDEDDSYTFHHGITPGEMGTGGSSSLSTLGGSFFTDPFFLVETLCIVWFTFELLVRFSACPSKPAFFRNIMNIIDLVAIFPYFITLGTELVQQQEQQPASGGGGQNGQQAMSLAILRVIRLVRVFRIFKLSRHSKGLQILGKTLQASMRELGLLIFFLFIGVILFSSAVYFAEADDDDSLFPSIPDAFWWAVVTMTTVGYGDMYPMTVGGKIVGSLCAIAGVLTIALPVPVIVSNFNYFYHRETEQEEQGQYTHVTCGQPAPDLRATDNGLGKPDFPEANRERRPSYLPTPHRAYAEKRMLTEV
T2 sequence (P08510 with tags, fused parts or gaps R362S/W434F/DUP563-563/Q583H/L584V): as the sequence (P08510 with tags, fused parts or gaps DUP563-563/Q583H/L584V) above, with R362S, W434F counted along it
Kv1.5, sequence (P22460 whole entry): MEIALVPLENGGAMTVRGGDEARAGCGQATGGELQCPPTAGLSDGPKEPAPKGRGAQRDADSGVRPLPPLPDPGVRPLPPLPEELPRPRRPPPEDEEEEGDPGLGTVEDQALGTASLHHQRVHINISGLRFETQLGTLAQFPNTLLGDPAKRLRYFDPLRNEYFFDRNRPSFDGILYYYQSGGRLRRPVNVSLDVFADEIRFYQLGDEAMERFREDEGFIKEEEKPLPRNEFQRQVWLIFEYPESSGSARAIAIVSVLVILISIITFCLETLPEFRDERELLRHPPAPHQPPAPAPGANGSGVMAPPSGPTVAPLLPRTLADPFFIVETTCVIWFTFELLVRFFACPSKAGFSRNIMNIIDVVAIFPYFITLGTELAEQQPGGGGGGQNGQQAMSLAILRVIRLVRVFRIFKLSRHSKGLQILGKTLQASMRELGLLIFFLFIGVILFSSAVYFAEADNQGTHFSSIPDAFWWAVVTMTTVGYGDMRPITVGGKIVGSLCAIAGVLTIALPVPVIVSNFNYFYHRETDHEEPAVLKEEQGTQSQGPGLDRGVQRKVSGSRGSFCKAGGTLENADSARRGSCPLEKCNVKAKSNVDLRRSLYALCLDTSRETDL

In the case of `O.O.O.O.O.O.O.[Cl-].[Cl-].[Cl-].[La+3]` [La3+, Lanthanum(III) chloride heptahydrate], the “Block of omega current (Iω) of R1S Shaker” value in assay [1] is “blocked in a concentration-dependent manner”. The “Block of Iω during the first pulse” value in assay [2] is on record as 31.8±3.6%. Further, the “Block of omega currents at steady state” value in [2] (5 oocytes) came out at 51.5±5.9%. In assay [3] (30 μM to 10 mM La3+), the “Block of inward currents at negative potentials (Iω)” value is on record as “blocked”. For the same compound, the “Hill coefficient nH” value in assay [3] (inward currents after 5 ms at -300 mV, Hill fit) is reported as 0.8±0.1.

As a reminder, the pIC50 is −log10 of the IC50, conventionally taken in molar units. As for `O=c1ccc2c(OCCCCOc3ccccc3)c3ccoc3cc2o1` [PAP-1], the pIC50 on Kv1.2 (Table 4, read-out: IC50 Kv1.2) is 6.60; on Kv1.5 it was 7.35; at Kv1.1 (Table 4, read-out: IC50 Kv1.1), 7.19; at Kv1.6, 4.51; at KCa3.1 it was 5.00; on Kv1.4 it was 6.77.

With `O=c1ccc2c(OCCCCc3ccccc3)c3ccoc3cc2o1` [Psora-4], the pIC50 on Kv1.6 is 7.21.

Take Charybdotoxin [Charybdotoxin (ChTX)]: the pIC50 at Kv1.2 (setting [5]) is 7.85; at Kv1.3 (Table 3, read-out: IC50 Values of Kv1.3 ion channel modulating agent), 9.72; at Kv1.3 (setting [6]), 9.72; at Kv1.1 (setting [7]), 5.82; at Shaker (read-out: IC50, channel Shaker), 6.64; on Kv2.1 it was below 5.70.

hanatoxin [HaTx]: the negative-log IC50 (pIC50) at Kv1.2 (setting [5]) was below 5.70; at Kv1.3 (setting [6]), below 6.30; in assay [4] it was 6.99; on Kv1.1 (setting [7]) it was below 6.30; at Kv2.1, 6.97. At Shaker (result in words), the “IC50, channel Shaker” value was “Weak”.

The record behind these values is US10753947B2, “Methods for screening voltage-gated proteins” (D.E. Shaw Research, LLC, priority 2012, dated 2020).
